Calls of active or inactive are those of the source.
Columns and labels:
[1] = molecular target: T1, Zinc finger protein mex-5 (Caenorhabditis elegans, UniProt Q9XUB2); assay: MEX-5/TCR-2 RNA interaction inhibitors, dose response, biochemical, C. elegans, fluorescence polarization (AID 1960)
T1 sequence (Q9XUB2 whole entry): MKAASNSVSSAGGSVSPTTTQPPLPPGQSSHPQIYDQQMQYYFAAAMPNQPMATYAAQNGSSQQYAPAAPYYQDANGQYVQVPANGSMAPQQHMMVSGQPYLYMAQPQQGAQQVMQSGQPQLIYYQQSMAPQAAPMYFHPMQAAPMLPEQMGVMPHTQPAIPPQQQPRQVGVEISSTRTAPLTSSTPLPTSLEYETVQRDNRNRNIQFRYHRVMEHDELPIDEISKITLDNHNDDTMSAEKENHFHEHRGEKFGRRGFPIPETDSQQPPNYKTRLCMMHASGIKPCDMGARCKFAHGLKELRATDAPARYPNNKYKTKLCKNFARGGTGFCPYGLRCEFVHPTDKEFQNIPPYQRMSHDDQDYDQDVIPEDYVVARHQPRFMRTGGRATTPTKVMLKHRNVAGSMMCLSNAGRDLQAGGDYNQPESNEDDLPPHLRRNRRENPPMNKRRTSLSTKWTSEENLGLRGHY

[2] = molecular target: T2, RNA-binding protein pos-1 (Caenorhabditis elegans, UniProt G5EF15); assay: inhibitors of POS-1/mex-3 RNA binding, dose response, biochemical, fluorescence polarization (AID 1964);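 note: purified POS-1 fused to maltose binding protein made in E. coli; potency of compounds blocking POS-1 binding to fluorescent RNA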
T2 sequence (G5EF15 whole entry): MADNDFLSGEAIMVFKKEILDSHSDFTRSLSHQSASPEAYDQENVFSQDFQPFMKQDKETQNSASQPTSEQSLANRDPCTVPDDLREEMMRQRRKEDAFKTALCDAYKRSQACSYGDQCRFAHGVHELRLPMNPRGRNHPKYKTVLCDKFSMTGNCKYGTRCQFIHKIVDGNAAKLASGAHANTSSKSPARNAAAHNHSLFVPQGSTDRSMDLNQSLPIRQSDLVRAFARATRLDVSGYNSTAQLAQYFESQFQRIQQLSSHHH

[3] = molecular target: T3, Heat shock factor protein 1 (Mus musculus, UniProt P38532); assay: HSF1 potentiators in luciferase reporter cells, confirmation, cell-based, NIH3T3, luminescence, dose retest (AID 435004); format: functional;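 note: stress induced by proteasome inhibitor MG132 added 30 min after compound; luciferase reporter driven by HSF1 response element in NIH3T3 cells; actives raise luminescence as potentiators of the MG132 stress response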
T3 sequence (P38532 whole entry): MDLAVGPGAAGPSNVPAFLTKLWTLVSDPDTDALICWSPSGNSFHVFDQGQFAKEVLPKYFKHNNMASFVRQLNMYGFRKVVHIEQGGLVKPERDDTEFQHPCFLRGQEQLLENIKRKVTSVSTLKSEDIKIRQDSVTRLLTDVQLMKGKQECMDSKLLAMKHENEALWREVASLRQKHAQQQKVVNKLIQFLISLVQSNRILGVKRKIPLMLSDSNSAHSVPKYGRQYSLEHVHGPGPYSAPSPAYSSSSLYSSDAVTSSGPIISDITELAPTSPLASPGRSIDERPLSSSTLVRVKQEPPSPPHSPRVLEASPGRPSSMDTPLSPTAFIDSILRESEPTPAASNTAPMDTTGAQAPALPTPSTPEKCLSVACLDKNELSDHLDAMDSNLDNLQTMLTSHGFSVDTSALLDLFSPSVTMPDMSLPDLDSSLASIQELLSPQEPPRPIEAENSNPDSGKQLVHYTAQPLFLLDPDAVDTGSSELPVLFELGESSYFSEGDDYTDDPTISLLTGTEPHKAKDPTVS

[4] = molecular target: Cytochrome P450 3A4 (Homo sapiens, UniProt P08684);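 note: CYP3A4 tested as one member of a cytochrome P450 panel screen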
Sequence of Cytochrome P450 3A4 (P08684 whole entry): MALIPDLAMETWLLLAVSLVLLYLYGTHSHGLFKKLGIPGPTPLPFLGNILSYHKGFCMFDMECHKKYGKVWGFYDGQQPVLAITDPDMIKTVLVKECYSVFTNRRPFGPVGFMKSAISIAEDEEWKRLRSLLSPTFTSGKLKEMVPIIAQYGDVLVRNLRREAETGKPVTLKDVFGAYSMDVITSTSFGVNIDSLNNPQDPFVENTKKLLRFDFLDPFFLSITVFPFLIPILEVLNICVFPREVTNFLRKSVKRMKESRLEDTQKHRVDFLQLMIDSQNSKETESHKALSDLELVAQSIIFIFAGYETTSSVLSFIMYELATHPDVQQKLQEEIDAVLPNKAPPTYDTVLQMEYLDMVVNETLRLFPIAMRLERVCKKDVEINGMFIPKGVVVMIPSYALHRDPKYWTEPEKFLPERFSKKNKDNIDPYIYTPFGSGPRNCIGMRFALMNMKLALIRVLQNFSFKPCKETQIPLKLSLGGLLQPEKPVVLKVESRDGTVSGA

[5] = molecular target: T4, Cytochrome P450 1A2 (Homo sapiens, UniProt P05177);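 note: PubChem cytochrome P450 panel assay, CYP1A2 panel member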
T4 sequence (P05177 whole entry): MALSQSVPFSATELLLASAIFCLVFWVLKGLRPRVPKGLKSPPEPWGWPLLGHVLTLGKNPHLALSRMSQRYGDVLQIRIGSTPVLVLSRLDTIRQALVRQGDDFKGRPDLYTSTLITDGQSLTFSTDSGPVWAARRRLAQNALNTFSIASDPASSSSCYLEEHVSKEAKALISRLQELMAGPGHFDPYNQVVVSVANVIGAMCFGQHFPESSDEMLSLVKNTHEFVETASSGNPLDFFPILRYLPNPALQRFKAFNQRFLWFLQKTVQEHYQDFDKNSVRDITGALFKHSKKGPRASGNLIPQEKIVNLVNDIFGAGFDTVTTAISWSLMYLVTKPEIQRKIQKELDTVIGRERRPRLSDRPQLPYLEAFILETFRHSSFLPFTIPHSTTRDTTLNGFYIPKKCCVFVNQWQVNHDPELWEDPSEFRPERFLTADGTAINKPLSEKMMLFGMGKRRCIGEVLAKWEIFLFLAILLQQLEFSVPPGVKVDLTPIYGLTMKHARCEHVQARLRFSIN

[6] = Luminescence Cell-Based Dose Retest to Confirm Inhibitors of Cancer Stem Cells. [Related pubchem assays (depositor defined):AID2717, AID2721]; format: functional; conditions: Homo sapiens
[7] = cells; format: functional
[8] = molecular target: Cytochrome P450 2C19 (Homo sapiens, UniProt P33261); assay: Cytochrome panel assay with activity outcomes. Panel member name: p450-cyp2c19 Compounds with AC50 equal or less than 10 uM are considered active; format: functional; conditions: read-out: AC50
Sequence of Cytochrome P450 2C19 (P33261 whole entry): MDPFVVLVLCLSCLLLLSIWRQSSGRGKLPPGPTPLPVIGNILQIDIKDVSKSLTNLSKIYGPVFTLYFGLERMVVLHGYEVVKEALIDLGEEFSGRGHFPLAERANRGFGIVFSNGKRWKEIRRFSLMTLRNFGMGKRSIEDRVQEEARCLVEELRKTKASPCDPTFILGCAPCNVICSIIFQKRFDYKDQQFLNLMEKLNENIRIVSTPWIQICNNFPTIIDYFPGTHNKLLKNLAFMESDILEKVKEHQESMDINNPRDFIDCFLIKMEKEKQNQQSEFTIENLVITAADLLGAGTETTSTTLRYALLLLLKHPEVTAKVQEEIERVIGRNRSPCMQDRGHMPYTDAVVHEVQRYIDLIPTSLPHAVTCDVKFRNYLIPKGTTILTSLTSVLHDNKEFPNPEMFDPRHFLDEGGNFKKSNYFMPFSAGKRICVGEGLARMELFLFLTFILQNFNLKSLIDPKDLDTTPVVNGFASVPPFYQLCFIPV

[9] = molecular target: Cytochrome P450 2C9 (Homo sapiens, UniProt P11712)
Sequence of Cytochrome P450 2C9 (P11712 whole entry): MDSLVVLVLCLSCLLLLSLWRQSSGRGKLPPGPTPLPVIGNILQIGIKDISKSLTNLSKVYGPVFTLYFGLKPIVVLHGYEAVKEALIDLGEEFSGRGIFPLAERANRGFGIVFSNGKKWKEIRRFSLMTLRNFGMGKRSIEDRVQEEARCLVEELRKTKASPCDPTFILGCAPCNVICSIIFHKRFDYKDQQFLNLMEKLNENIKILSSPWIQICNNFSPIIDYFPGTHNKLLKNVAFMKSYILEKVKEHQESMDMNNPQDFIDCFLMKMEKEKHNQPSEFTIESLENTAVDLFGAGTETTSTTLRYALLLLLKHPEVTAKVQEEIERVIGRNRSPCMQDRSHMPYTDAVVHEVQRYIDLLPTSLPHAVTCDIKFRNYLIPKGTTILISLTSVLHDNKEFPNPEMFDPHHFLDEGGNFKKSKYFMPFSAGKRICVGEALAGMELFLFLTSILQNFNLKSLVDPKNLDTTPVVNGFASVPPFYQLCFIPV

[10] = system: INS1; assay: beta cell apoptosis inhibitors, cytokine rescue, dose response, luminescence, retest (AID 449756); format: functional, cell-based; conditions: Rattus norvegicus;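 note: cell death triggered by IL-1 beta plus TNF-alpha plus IFN-gamma mixture; protective hits raise ATP signal compared with cytokine alone wells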
[11] = molecular target: Cytochrome P450 2D6 (Homo sapiens, UniProt P10635);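 note: CYP2D6 member of a cytochrome P450 panel assay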
Sequence of Cytochrome P450 2D6 (P10635 whole entry): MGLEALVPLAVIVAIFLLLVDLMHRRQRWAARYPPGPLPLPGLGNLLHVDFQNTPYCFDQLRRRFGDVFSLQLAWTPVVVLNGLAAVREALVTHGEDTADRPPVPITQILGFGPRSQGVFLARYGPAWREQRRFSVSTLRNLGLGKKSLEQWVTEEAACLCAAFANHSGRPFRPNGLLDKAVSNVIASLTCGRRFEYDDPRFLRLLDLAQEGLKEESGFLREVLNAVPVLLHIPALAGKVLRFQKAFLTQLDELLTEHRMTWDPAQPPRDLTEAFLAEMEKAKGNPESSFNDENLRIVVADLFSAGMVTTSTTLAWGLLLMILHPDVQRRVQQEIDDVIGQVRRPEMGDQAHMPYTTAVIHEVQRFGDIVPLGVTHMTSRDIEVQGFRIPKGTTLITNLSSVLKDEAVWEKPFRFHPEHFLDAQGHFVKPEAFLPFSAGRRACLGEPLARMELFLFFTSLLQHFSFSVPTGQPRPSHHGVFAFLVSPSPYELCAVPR

[12] = molecular target: T5, Streptokinase A (Streptococcus pyogenes serotype M1, UniProt P10520); assay: S. pyogenes streptokinase expression inhibitors, potency, dose response, plasminogen activation absorbance, OD405 (AID 1914); format: functional, Streptococcus pyogenes M1 GAS;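 note: secreted streptokinase activity via plasminogen activation per viability signal from cell pellet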
T5 sequence (P10520 whole entry): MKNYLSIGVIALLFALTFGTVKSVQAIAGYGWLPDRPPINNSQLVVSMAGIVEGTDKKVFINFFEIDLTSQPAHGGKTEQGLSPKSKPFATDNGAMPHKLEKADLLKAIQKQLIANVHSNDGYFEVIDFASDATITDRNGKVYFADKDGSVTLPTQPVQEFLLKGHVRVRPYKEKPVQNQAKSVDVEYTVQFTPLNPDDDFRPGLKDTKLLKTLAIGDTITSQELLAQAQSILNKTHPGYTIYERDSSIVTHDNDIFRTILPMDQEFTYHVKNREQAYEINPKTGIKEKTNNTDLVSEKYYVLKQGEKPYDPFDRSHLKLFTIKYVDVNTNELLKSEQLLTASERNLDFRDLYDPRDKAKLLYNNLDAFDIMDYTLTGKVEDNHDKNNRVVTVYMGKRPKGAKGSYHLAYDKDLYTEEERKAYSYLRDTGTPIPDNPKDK

[13] = system: Streptococcus sp. 'group A'; assay: growth inhibition of control SK(-) GAS strain, dose response, counter-screen for streptokinase expression inhibitor project, luminescence, kanamycin, BacTiterGlo, confirmation (AID 1900); format: functional, organism-based
[14] = system: Streptococcus; assay: Group A Streptococcus viability loss, dose response, counter-screen for streptokinase expression inhibitor project, luminescence, BacTiterGlo (AID 1915); format: functional, organism-based;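 note: potency for reduction of bacterial viability or growth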

## O=c1[nH][nH]c2cc(=O)n(-c3ccc(Cl)cc3)nc12
[1]
  EC50: 4.09 µM (active)
[2]
  EC50: 15.4 µM (active)

## COc1ccc(C2C(C#N)=C(N)OC3=C2C(=O)CC(C)(C)C3)cc1Cn1nc(C)c([N+](=O)[O-])c1C (stereo not given)
[1]
  EC50: > 300 µM (not active)
[2]
  EC50: > 300 µM (not active)

## O=C(c1cn(CC(=O)N2CCCCC2)c2ccccc12)C1CC1
[3]
  EC50: > 260 µM (inactive)

## CCCCC/N=c1\ccn(Cc2ccccc2)c2ccccc12 [CP-339818]
[4]
  AC50: 15.8 µM (inconclusive)
[5]
  AC50: 25.1 µM (inconclusive)

## CC(=O)Nc1ccc(/C=C/C(=O)c2ccc3c(c2)OCCO3)cc1
[1]
  EC50: > 300 µM (not active)
[2]
  EC50: > 300 µM (not active)

## COc1cc2nc(NC(=O)c3ccc(Cl)cc3)sc(=O)c2cc1OC
[3]
  EC50: > 260 µM (inactive)

## CC(=N)/C(C#N)=C(/O)CSc1nnc(-c2ccccc2Br)o1
[3]
  EC50: > 260 µM (inactive)

## Cc1ccc2oc(C(Cl)(Cl)Cl)cc(=O)c2c1
[3]
  EC50: 27.9 µM (active)

## O=C(NCCN1CCOCC1)c1cccn2c(=O)c3c4c(sc3nc12)CCCC4
[1]
  EC50: > 300 µM (not active)
[2]
  EC50: > 300 µM (not active)

## COc1ccc2c(c1)CCc1c(C(=O)N3CC4(C)CC3CC(C)(C)C4)noc1-2 (stereo not given)
[6]
  AC50: < 0.16 µM (active)
[3]
  EC50: > 260 µM (inactive)

## COC(=O)CN(C#N)c1nc(SC)nc(N(C)C)n1
[7]
  IC50: 18.9 µM (active)

## CCS(=O)(=O)c1ccc(O)c(NC(=O)Nc2ccccc2)c1
[5]
  AC50: 20 µM (inconclusive)
[8]
  AC50: 39.8 µM (inconclusive)
[9]
  AC50: 7.08 µM (inconclusive)

## CC1=CC(C)(C)N(C)C(=O)N1c1ccc(Cl)cc1
[5]
  AC50: 17.8 µM (inconclusive)
[9]
  AC50: 31.6 µM (inconclusive)

## CCOC(=O)CSCC(NC(=O)OC(C)(C)C)C(=O)OCC (stereo not given)
[5]
  AC50: 25.1 µM (inconclusive)
[9]
  AC50: 14.1 µM (inconclusive)

## O=C(NCc1ccccn1)C1Nc2ccc(C(F)(F)F)cc2C2C=CCC12 (stereo not given)
[1]
  EC50: > 300 µM (not active)
[2]
  EC50: > 300 µM (not active)

## Cc1ccc2cc3c(nc2c1)OCC3
[7]
  IC50: > 50 µM (active)

## Cc1nc(C)c(-c2csc(NCCc3ccccc3)n2)s1
[10]
  AC50: 18 µM (active)

## CCOC(=O)COc1cc(O)c2c(=O)cc(-c3ccccc3)oc2c1
[7]
  IC50: 0.86 µM (active)

## CCO/C(O)=C/C(C)=N/c1cc(C)nn1-c1ccccc1
[3]
  EC50: > 260 µM (inactive)

## CN1CCN(c2c(F)cc3c(=O)c(C(=O)O)cn4c3c2SCC4)CC1
[7]
  IC50: 8.05 µM (active)

## Cc1ccnc(NC(=O)COc2ccc3c(c2)CCC3)c1
[7]
  IC50: 24.5 µM (active)

## COc1ccc(C2C(C#N)=C(N)OC3=C2C(=O)CC(C)(C)C3)cc1Cn1cc([N+](=O)[O-])cn1 (stereo not given)
[1]
  EC50: > 300 µM (not active)
[2]
  EC50: > 300 µM (not active)

## Cc1cc(C(=O)N2CCN(c3ccccn3)CC2)c(C)o1
[3]
  EC50: > 260 µM (inactive)

## CC(C)CCNC1c2ccccc2C(=O)N1Cc1ccccc1 (stereo not given)
[3]
  EC50: > 260 µM (inactive)

## O=C(Oc1cccc2cccnc12)c1cccc([N+](=O)[O-])c1
[7]
  IC50: 10.9 µM (active)

## O=C(NC(CO)(CO)CO)c1coc(=O)c(Br)c1
[3]
  EC50: > 260 µM (inactive)

## Cc1cccc2cc(CN(Cc3ccccc3)C(=O)c3cccc(F)c3)c(Cl)nc12
[5]
  AC50: 11.2 µM (inconclusive)
[11]
  AC50: 15.8 µM (inconclusive)

## CC(=O)c1ccc(NC(S)=NC(C)c2ccc(Cl)cc2Cl)cc1 (stereo not given)
[10]
  AC50: 15.6 µM (active)

## CCNc1ncc2nc(-c3cccs3)c(=O)n(Cc3cccc(OC)c3)c2n1
[4]
  AC50: 12.6 µM (inconclusive)
[5]
  AC50: 0.126 µM (inconclusive)

## O=C(COC(=O)c1cc(Cl)ccc1O)c1ccc2c(c1)OCO2
[7]
  IC50: 12.1 µM (active)

## Cc1ccc(/C=C/C(=O)c2ccc([N+](=O)[O-])o2)cc1
[12]
  EC50: 8.82 µM (active)
[13]
  EC50: 4.07 µM (active)
[10]
  AC50: 5.65 µM (active)
[14]
  EC50: 14.2 µM (active)

## CCOc1ccc(C(=O)NC2CC3CCCC(C2)N3CC(C)C)cc1 (stereo not given)
[3]
  EC50: > 260 µM (inactive)

## Cc1c(NC(=O)/C=C/c2cn(-c3ccccc3)nc2-c2ccc(F)cc2)c(=O)n(-c2ccccc2)n1C
[4]
  AC50: 25.1 µM (inconclusive)
[5]
  AC50: 28.2 µM (inconclusive)
[9]
  AC50: 20 µM (inconclusive)

## O=C(O)c1ccccc1C(=O)NNc1ccc(Cl)cc1
[5]
  AC50: 6.31 µM (inconclusive)
[8]
  AC50: 5.01 µM (inconclusive)
[6]
  AC50: 0.983 µM (active)

## CCN(CC)CCN/C=C1/C(=O)NC(=O)N(Cc2ccccc2)C1=O
[1]
  EC50: > 300 µM (not active)
[2]
  EC50: > 300 µM (not active)

## COc1ccc(-c2ccc3c(c2)S(=O)(=O)c2cccc(C(=O)NCCOc4ccccc4Cl)c2C3=O)cc1OC
[10]
  AC50: 3.41 µM (active)

## COc1ccccc1NC(=O)C1=C(C)Nc2nnnn2C1c1cccc(Br)c1 (stereo not given)
[5]
  AC50: 31.6 µM (inconclusive)
[11]
  AC50: 15.8 µM (inconclusive)

Reference: ChEMBL document CHEMBL1201862, “PubChem BioAssay data set” (2004)
